Results on 2 compounds are retold here after patent publication US9880171B2, “iASPP phosphorylation and metastatic potential” (LUDWIG INSTITUTE FOR CANCER RESEARCH LTD., priority 2012, dated 2018).

Test [1] relates to B16 melanoma cells. As to the kind of experiment: apoptosis by Sub-G1 FACS analysis, Example 10, B16 cells. Type of test: cell-based, mouse. The method, then: (§1) FIG. 20. Restoring p53 by inhibiting mdm2 and iASPP suppresses melanoma growth in vitro and in vivo. FIG. 20A. H1299 cells were treated with DMSO or 10 μM nocodazole in the presence or absence of 2 or 10 μM of mitosis-related kinase inhibitors as indicated. […] FIG. 20B. Left panel: representative p53 level after Nutlin3 treatment for 24 hours in a variety of cells. Right bar graphs show the sub-G1 proportion of WM278 after treatment as that described in FIG. 19B (in upper panel, 10 μM and 20 μM Nutlin3 were used in parallel for comparison). From left to right of the upper right bar graph of FIG. 20B, the bars correspond to DMSO, Nut and JNJ+Nut, respectively. From left to right of the bottom bar graph of FIG. 20B, the bars correspond to DMSO, JNJ, Nut and JNJ+Nut, respectively. FIG. 20C. Me300, SK-MEL37, and B16 cells were treated as above (For B16 panel, 10 μM Nutlin3 was used) and sub-G1 proportion was analyzed. In (B) and (C), the bar graphs (mean±SD) were derived from three independent experiments. *p<0.05. FIG. 20D. Left panel: untreated B16 cells were subcutaneously injected into mice at day 1. […] Compound administration and tumor size measurement were repeated every two days from day 7 onwards. Bar graphs are shown as mean±SD (*p<0.05, n=6). FIG. 20E. […]
FIG. 22. […] Me300, SK-MEL37, and B16 cells were treated as described herein and sub-G1 cells were analyzed as described herein.
In general terms: A flow cytometer gives signals particle by particle.

For test [2], the system named is p53 expression in SK-MEL37, WM278 and Me300 cells. As to the kind of experiment: p53 level after Nutlin3 treatment, human melanoma cells. Type of test: cell-based. The method, then: as §1, with “20E. Lower panels show representative images of isolated tumors. Right panel: representative H & E staining in B16 tumor section. Bar=20 μm.” for “20E.”
Test [3] deals with iASPP(-/-)MEFs. As to the kind of experiment: apoptosis markers (c-PARP, c-Caspase 3) in Ras and E1A transformed iASPP(-/-) MEFs. To be noted: vector transfected iASPP(-/-)MEFs, 24 hours. Type of test: cell-based, mouse. The protocol: FIG. 9. […] A. iASPP S84D/S113D binds p53 better than WT iASPP in vitro. in vitro translated iASPP-V5 (WT) or its mutant iASPP(S84D/S113D) (S84D/S113D) (Input) were incubated with nickel beads that were pre-bound with either p53(2-193)-His (p53) or BSA (BSA) to carry out an immunoprecipitation assay (IP). The amount of iASPP that was co-immunoprecipitated with p53 was detected by an anti-V5 antibody (iASPP V5 panel) whereas the amount of p53 immunoprecipitated was detected by an anti-His antibody (p53(2-193)-His panel). B iASPP S84D/S113D binds p53 better than WT iASPP in transfected cells. iASPP-V5 (WT) or its mutant iASPP(S84D/S113D) (S84D/S113D) and p53 were co-transfected in H1299 cells (Input). […] The amount of p53 pulled down is shown in (p53 panel) whereas p53 bound iASPP was determined by anti-V5 antibody (iASPP V5 panel). […] The expression levels of known apoptosis markers were detected in immunoblotting using D214 or D175 to detect cleaved PARP (c-PARP) or caspase 3 (c-caspase 3) respectively. […] Cells were dissolved in urea buffer and apoptosis markers (cleaved PARP, caspase-3) were determined by WB.
The anti-apoptotic function of iASPP and its mutant iASPP(S84D/S113D) was tested in Ras and E1A transformed iASPP(−/−)MEFs (referred to as iASPP(−/−)MEFs). […] Apoptosis was measured by the presence of cleaved PARP (c-PARP) or active caspase 3 (c-Caspase 3). […]

Regarding `Nc1nc(Nc2ccc(S(N)(=O)=O)cc2)nn1C(=O)c1c(F)cccc1F` [JNJ-7706621], in test [1], the “increase in Nutlin3-induced apoptosis” value is given as 3-4 fold.
In the case of `COc1ccc(C2=N[C@@H](c3ccc(Cl)cc3)[C@@H](c3ccc(Cl)cc3)N2C(=O)N2CCNC(=O)C2)c(OC(C)C)c1` [Nutlin3], the “optimal concentration of Nutlin3 to induce maximal p53 expression” value in test [2] (SK-MEL37) worked out at 2 µM; in test [2] (WM278 and Me300 cells) it was 20 µM. Moreover, the “apoptosis (increase in c-PARP and c-Caspase 3)” value in test [3] is “apoptosis was detected”.
